# Measured values as given in US20190000081A1, “PLANT DISEASE CONTROL COMPOSITION AND PLANT DISEASE CONTROL METHOD” (SUMITOMO CHEMICAL COMPANY, LIMITED, priority 2015, published 2019).
# How the values were obtained:
# wheat leaf blight fungus = assay: Test Example 3: growth of wheat leaf blight fungus in YBG medium, microtiter plate, absorbance at 550 nm; type: cell-based, Mycosphaerella graminicola; settings: single use, 18° C., six days
# Procedure: The present compound 1-1 or the present compound 2-1 was dissolved into dimethyl sulfoxide such that each concentration of the present compound 1-1 or the present compound 2-1 was adjusted to one hundred fifty times as much as the concentration indicated in the below-mentioned Table 5. The resultant agent solution was dispensed into a microtiter plate (with 96 wells) in 1 μl portion thereof per well. One hundred forty nine (149) μl of YBG medium. (which was prepared by dissolving 10 g of yeast extract, 10 g of Bacto Peptone, and 20 mL of glycerol into 1 L of water, followed by sterilizing the medium) was dispensed into the wells to which the agent solution(s) was/were dispensed. The plate was cultivated at 18° C. for six days, thereby allowing wheat leaf blight fungus to undergo proliferation, and the absorbance at 550 nm of each well of the micro titer plate was then measured to examine a degree of growth of the wheat leaf blight fungus (hereinafter referred to as “treated group”).
# Whereas, wheat leaf blight fungus was proliferated similarly to the case of the treated group except that dimethyl sulfoxide was used instead of the agent solution, and the degree of the growth was examined (hereinafter referred to as “untreated group”). The efficacy was calculated from the respective obtained degree of growth by the below-mentioned “Equation 1”.
# Efficacy (%)=100×(X−Y)/X Equation 1 […]
# [1] = test system: wheat rust fungus (Puccinia recondita); assay: Test Example 4: foliar spray of flowable formulations on potted wheat, wheat rust lesion area; type: in vivo; settings: wheat (cultivar. Shirogane), single use
# Procedure: Five (5) parts of the present compound 1-1, 35 parts of a mixture of white carbon and ammonium polyoxyethylene alkyl ether sulfate (the weight ratio of 1:1) and […] of water were mixed, and the mixture was then finely-ground by a wet grinding method to obtain a flowable formulation comprising the present compound 1-1. Separately, the flowable formulation comprising the present compound 2-1 was prepared according to the above-mentioned similar method except that the present compound 2-1 was used instead of the present compound 1-1 to form a flowable formulation comprising the present compound 2-1.
# Each of the above-mentioned respective flowable formulations, and the flowable formulation comprising the present compound 1-1 and the present compound 2-1 that was prepared according to the above-mentioned Formulation Example 3 was diluted with water such that each concentration of the respective compounds in the dilution solutions was adjusted to that indicated in Table 6, to prepare the dilution solutions, respectively.
# A plastic pot was filled with soil, and thereto wheat (cultivar. Shirogane) was seeded, and the plants were grown in a greenhouse for ten days. […]
# From each of the lesion area of the treated group and the untreated group, respectively, the efficacy of the treated group was calculated by the below-mentioned Equation 2. […]
smiles,measurement,setting,value
Cc1nnc(Cl)c(-c2c(F)cccc2F)c1-c1ccccc1 [Present compound 1-1],Efficacy (%),wheat leaf blight fungus; concentration in medium 0.005 ppm,4%
same,Efficacy (%),wheat leaf blight fungus; concentration in medium 0.1 ppm,75%
same,Efficacy (%),[1]; concentration 0.0001 ppm,20%
same,Efficacy (%),[1]; concentration 0.01 ppm,31%
